PubChem BioAssay AID1918948 (Molecular Pharmacology Branch, DTP, NCI, 2023)

Tested on: K-562 leukemia growth, % test/control
Test: Anticancer human tumor K-562 cell line growth inhibition;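 note: spheroids exposed to compounds for 7 days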;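 for viability, T/C: 100% = DMSO vehicle wells and lower values mean fewer viable cells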
Settings: spheroids with HUVEC and MSC; for IC50: curve of first compound; for viability, T/C: stronger effect = lower value
In short: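 Drug combinations with the LSD1 inhibitor iadademstat tested on tumor cells co-cultured as spheroids with endothelial cells and mesenchymal stem cells. Concentrations descended in half-log increments from clinical Cmax or 10 microM.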

[1] = second compound 0.1 µM, first compound 0.0316 µM
[2] = second compound 0.1 µM, first compound 0.1 µM
[3] = second compound 0.1 µM, first compound 0.316 µM
[4] = second compound 0.1 µM, first compound 1 µM
[5] = second compound 0.316 µM, first compound 0.0316 µM
[6] = second compound 0.316 µM, first compound 0.1 µM
[7] = second compound 0.316 µM, first compound 0.316 µM
[8] = second compound 0.316 µM, first compound 1 µM
[9] = second compound 1 µM, first compound 0.0316 µM
[10] = second compound 1 µM, first compound 0.1 µM
[11] = second compound 1 µM, first compound 0.316 µM
[12] = second compound 1 µM, first compound 1 µM
[13] = second compound 3.16 µM, first compound 0.0316 µM
[14] = second compound 3.16 µM, first compound 0.1 µM
[15] = second compound 3.16 µM, first compound 0.316 µM
[16] = second compound 3.16 µM, first compound 1 µM
[17] = second compound 10 µM, first compound 0.0316 µM
[18] = second compound 10 µM, first compound 0.1 µM
[19] = second compound 10 µM, first compound 0.316 µM
[20] = second compound 10 µM, first compound 1 µM

For `CC1(C)CCC(CN2CCN(c3ccc(C(=O)NS(=O)(=O)c4ccc(NCC5CCOCC5)c([N+](=O)[O-])c4)c(Oc4cnc5[nH]ccc5c4)c3)CC2)=C(c2ccc(Cl)cc2)C1` + NC1CCC(NC2CC2c2ccccc2)CC1, the IC50 (second compound 0.1 µM) was 6560 nM, the IC50 (second compound 0.316 µM) was 6650 nM and the IC50 (second compound 1 µM) was 6570 nM. For the same molecule, the IC50 (second compound 3.16 µM) was 6940 nM, the IC50 (second compound 10 µM) was 6520 nM and the viability, T/C [1] was 99.8%. The viability, T/C [2] was 102%, the viability, T/C [3] was 101% and the viability, T/C [4] was 104%. For the same molecule, the viability, T/C (second compound 0.1 µM, first compound 3.16 µM) was 109%, the viability, T/C (second compound 0.1 µM, first compound 10 µM) was 19.1% and the viability, T/C [5] was 102%. For the same molecule, the viability, T/C [6] was 104%, the viability, T/C [7] was 104% and the viability, T/C [8] was 101%. The viability, T/C (second compound 0.316 µM, first compound 3.16 µM) was 110%, the viability, T/C (second compound 0.316 µM, first compound 10 µM) was 20% and the viability, T/C [9] was 104%. For the same molecule, the viability, T/C [10] was 104%, the viability, T/C [11] was 107% and the viability, T/C [12] was 108%. The viability, T/C (second compound 1 µM, first compound 3.16 µM) was 110%, the viability, T/C (second compound 1 µM, first compound 10 µM) was 17.6% and the viability, T/C [13] was 105%. For the same molecule, the viability, T/C [14] was 103%, the viability, T/C [15] was 104% and the viability, T/C [16] was 108%. It also gave a viability, T/C (second compound 3.16 µM, first compound 3.16 µM) of 106%, a viability, T/C (second compound 3.16 µM, first compound 10 µM) of 24.3% and a viability, T/C [17] of 97.6%. For the same molecule, the viability, T/C [18] was 99.6%, the viability, T/C [19] was 99.8% and the viability, T/C [20] was 101%. The viability, T/C (second compound 10 µM, first compound 3.16 µM) was 101% and the viability, T/C (second compound 10 µM, first compound 10 µM) was 20.5%.

With `Nc1ncn(C2CC(O)C(CO)S2)c(=O)n1` (stereo not given) + NC1CC1c1ccc(-c2cccc(O)c2)cc1 the IC50 (second compound 0.1 µM) was 91.1 nM, the IC50 (second compound 0.316 µM) was 84.4 nM and the IC50 (second compound 1 µM) was 79 nM. The IC50 (second compound 3.16 µM) was 76.8 nM, the IC50 (second compound 10 µM) was 55.8 nM and the viability, T/C (second compound 0.1 µM, first compound 0.000949 µM) was 110%. The viability, T/C (second compound 0.1 µM, first compound 0.003 µM) was 108%, the viability, T/C (second compound 0.1 µM, first compound 0.00949 µM) was 107% and the viability, T/C (second compound 0.1 µM, first compound 0.03 µM) was 93.2%. For the same molecule, the viability, T/C (second compound 0.1 µM, first compound 0.0949 µM) was 48.4%, the viability, T/C (second compound 0.1 µM, first compound 0.3 µM) was 17.1% and the viability, T/C (second compound 0.316 µM, first compound 0.000949 µM) was 103%. It also gave a viability, T/C (second compound 0.316 µM, first compound 0.003 µM) of 104%, a viability, T/C (second compound 0.316 µM, first compound 0.00949 µM) of 103% and a viability, T/C (second compound 0.316 µM, first compound 0.03 µM) of 90.3%. The viability, T/C (second compound 0.316 µM, first compound 0.0949 µM) was 45.5%, the viability, T/C (second compound 0.316 µM, first compound 0.3 µM) was 16.3% and the viability, T/C (second compound 1 µM, first compound 0.000949 µM) was 102%. For the same molecule, the viability, T/C (second compound 1 µM, first compound 0.003 µM) was 103%, the viability, T/C (second compound 1 µM, first compound 0.00949 µM) was 104% and the viability, T/C (second compound 1 µM, first compound 0.03 µM) was 88%. The viability, T/C (second compound 1 µM, first compound 0.0949 µM) was 42.9%, the viability, T/C (second compound 1 µM, first compound 0.3 µM) was 15.6% and the viability, T/C (second compound 3.16 µM, first compound 0.000949 µM) was 98.5%. It also gave a viability, T/C (second compound 3.16 µM, first compound 0.003 µM) of 105%, a viability, T/C (second compound 3.16 µM, first compound 0.00949 µM) of 102% and a viability, T/C (second compound 3.16 µM, first compound 0.03 µM) of 85.6%. For the same molecule, the viability, T/C (second compound 3.16 µM, first compound 0.0949 µM) was 42.1%, the viability, T/C (second compound 3.16 µM, first compound 0.3 µM) was 16.3% and the viability, T/C (second compound 10 µM, first compound 0.000949 µM) was 98.8%. The viability, T/C (second compound 10 µM, first compound 0.003 µM) was 101%, the viability, T/C (second compound 10 µM, first compound 0.00949 µM) was 98% and the viability, T/C (second compound 10 µM, first compound 0.03 µM) was 72.6%. It also gave a viability, T/C (second compound 10 µM, first compound 0.0949 µM) of 30.5% and a viability, T/C (second compound 10 µM, first compound 0.3 µM) of 12.3%.

With `O=C(C=Cn1cnc(-c2cc(C(F)(F)F)cc(C(F)(F)F)c2)n1)NNc1cnccn1` + NC1CCC(NC2CC2c2ccccc2)CC1 the IC50 (second compound 0.1 µM) was 59.8 nM, the IC50 (second compound 0.316 µM) was 58.9 nM and the IC50 (second compound 1 µM) was 61 nM. It also gave an IC50 (second compound 3.16 µM) of 60.6 nM, an IC50 (second compound 10 µM) of 43.1 nM and a viability, T/C (second compound 0.1 µM, first compound 0.00316 µM) of 104%. For the same molecule, the viability, T/C (second compound 0.1 µM, first compound 0.01 µM) was 92.3%, the viability, T/C [1] was 69.5% and the viability, T/C [2] was 36.6%. It also gave a viability, T/C [3] of 4.19%, a viability, T/C [4] of 1.72% and a viability, T/C (second compound 0.316 µM, first compound 0.00316 µM) of 107%. It also gave a viability, T/C (second compound 0.316 µM, first compound 0.01 µM) of 92%, a viability, T/C [5] of 69.2% and a viability, T/C [6] of 36.5%. For the same molecule, the viability, T/C [7] was 4.44%, the viability, T/C [8] was 1.67% and the viability, T/C (second compound 1 µM, first compound 0.00316 µM) was 107%. It also gave a viability, T/C (second compound 1 µM, first compound 0.01 µM) of 91.5%, a viability, T/C [9] of 70% and a viability, T/C [10] of 38.2%. It also gave a viability, T/C [11] of 4.8%, a viability, T/C [12] of 2.29% and a viability, T/C (second compound 3.16 µM, first compound 0.00316 µM) of 103%. It also gave a viability, T/C (second compound 3.16 µM, first compound 0.01 µM) of 92.5%, a viability, T/C [13] of 67.8% and a viability, T/C [14] of 38.8%. It also gave a viability, T/C [15] of 4.71%, a viability, T/C [16] of 1.78% and a viability, T/C (second compound 10 µM, first compound 0.00316 µM) of 88.8%. It also gave a viability, T/C (second compound 10 µM, first compound 0.01 µM) of 75.1%, a viability, T/C [17] of 57.1% and a viability, T/C [18] of 33.7%. The viability, T/C [19] was 3.55% and the viability, T/C [20] was 2.29%.
